# Source: PMC10054428, “Turning a Tumor Microenvironment Pitfall into Opportunity: Discovery of Benzamidoxime as PD-L1 Ligand with pH-Dependent Potency” (International Journal of Molecular Sciences, 2023)
# Entries after “also recorded” stand apart in the source; their conditions may differ. Like-named read-outs stand apart in the source and are kept apart here.
# Legend:
# [1] = target: T1, NT650/PD-L1 (recombinant human PD-L1) (Homo sapiens, UniProt Q9NZQ7); experiment: Full-point MST binding assay (Kd) at pH 7.2 and 6.2; details: for BEI (pH 6.2) / BEI: BEI = pKd/MW (kDa); for delta increment of BEI: pH 6.2 versus pH 7.2; for BEI: pH 7.2
# T1 construct: purchased Abcam ab167713
# Protocol: These compounds were next tested in full ligand binding assays against NT650/PD-L1 at pH 7.2, using the scalar concentration of each compound to obtain binding curves and the relative dissociation constants (Kd).
# (§1) Biophysical Binding Assays. A lyophilized form of the recombinant human PD-L1 protein was purchased from Abcam (ab167713, Abcam, Cambridge, UK) and reconstituted by adding sterile deionized water to reach a theoretical concentration of 400 µg/mL in PBS (PBS7.2: 50 mM KH2PO4, 0.05% Tween 20, pH 7.2). […] Then, the protein was labeled with a fluorescent dye using the Protein Labelling Kit RED-NHS (NT650, NanoTemper Technologies GmbH, Munich, Germany) and a 1:4 ratio (protein:dye). […] The unbounded fluorophore was removed by a size-exclusion chromatography column using a PBS7.2 storage buffer (pH 7.2). The removal of the unbounded fluorophore was also repeated by conditioning the size-exclusion chromatography column with a phosphate buffer at pH 6.2 (PBS6.2: 50 mM KH2PO4, 0.05% Tween 20, pH 6.2).
# (§2) Ligand binding experiments were performed using MST (Monolith NT.115; NanoTemper Technologies GmbH, Munich, Germany). This method is based on the principle of thermophoresis, which is the movement of a biomolecular complex in a temperature gradient depending on the size, charge, and hydration shell that typically change upon ligand/target interaction. The selected 10 highly soluble fragments were purchased from Life Chemicals. […] A vehicle of DMSO 2% was used as negative control.
# Each compound was tested starting the 1:1 dilution from a 1 mM concentration in MST buffer (PBS7.2 and PBS6.2) with 2% DMSO. An amount of 10 µL solution of 100 nM NT650/PD-L1 was added to each compound dilution and mixed to halve the final concentration of each component, including 2% DMSO, and reach a reaction volume of 20 µL. After incubating the mixtures for 30 min, samples were loaded into 16 premium-coated capillary tubes for MST analysis. MST signals were recorded for each capillary at medium laser power and 40% LED power, choosing the manual mode with 19/20s hot region.
# The Binding Efficiency Index (BEI) was calculated using the following equation [Equation (1)] [43]:BEI = pKd/MW (kDa)(1)
# (§3) In all binding experiments and ligand binding displacement assays, raw data were analyzed using MO.Affinity analysis software v2.3 (NanoTemper Technologies GmbH, Munich, Germany). Kd values were extrapolated by compound concentration-dependent changes of the NT650/PD-L1 F-norm signals using MO.Affinity analysis software v2.3.
# (§4) MST experiments were carried out using a Monolith NT.115 instrument (NanoTemper Technologies GmbH, Munich, Germany).
# [2] = target: T1, NT650/PD-L1 (recombinant human PD-L1); experiment: Single-point MST binding assay; details: 250 µM compound; for Binder (single-point binder flag): 50 nM NT650/PD-L1, pH 7.2, F-norm outside vehicle ± 3 SD; for Single-point binding result (in words): NT650/PD-L1
# Protocol: Putative hit compounds were defined as those molecules inducing a thermophoretic movement of the ligand-bound complex with a fluorescent signal (F-norm) outside the signal value and three-fold standard deviations of the negative control (vehicle, DMSO).
# as §1, §2
# Single-point binding assays were carried out, recording the MST signal for each capillary at medium laser power and 40% LED power, choosing the manual mode with a 19/20 s hot region. Each experiment was repeated three times employing premium-coated capillaries.
# [3] = pKa by potentiometric titration (SiriusT3); format: physicochemical; details: 25 °C, n.3
# Description: The first value (pKa1) corresponds to the deprotonated state of the protonated oxime nitrogen atom, entailing the neutral form. The second value (pKa2) is associated to the deprotonation of the oxime hydroxyl group, providing the anionic form of the compound. The presence of electron-withdrawing and/or -donating groups on the benzene ring may affect these values, entailing different stabilities of the cationic, neutral, and anionic species at a given pH. Accordingly, we used a potentiometric titration method to determine the pKa values of VIS310 and its analogues (9, 16–20).
# Table 3 reports the experimental pKa values of BMS-202 (5), VIS310 (9), and its analogues (16–20), as obtained using SiriusT3 instrument. […] Therefore, the very high pKa value corresponding to the deprotonation of the oxime hydroxyl group was not experimentally determined in the compounds. Conversely, one or two pKa values were obtained, depending on the presence of a phenol moiety in the benzamidoxime derivatives. […] This is more evident with the insertion of the para hydroxyl group in the compounds VIS1201 (17; pKa1 = 5.35), VIS1202 (18; pKa1 = 5.38), VIS1203 (19; pKa1 = 5.38), and VIS310 (9; pKa1 = 5.65). These latter compounds show also a second value of the acid dissociation constant (pKa2) that corresponds to the deprotonated state of the phenolic group, entailing the anionic form of the compound. […] At pH 7.2, the microspecies adopting a neutral form increases, whereas the cationic form decreases, and a minor part of the microspecies starts adopting an anionic form (Figures S2 and S3, supplementary material).
# Physicochemical Property Evaluations. Acidic constants (calcpKa) of compounds were calculated using the calculator plugin Marvin (v20.11, 2021; ChemAxon, Budapest, Hungary).
# Each experiment was performed by specifying the sample weight, number of expected pKa values, calculated pKa (calcpKa) values, titration mode, and number of titrations (n.3). In order to measure the pKa of a compound, a sample concentration of 1 mM was prepared and dissolved, adding methanol as the co-solvent. […] Titrations of compounds 16–20 were performed using a ratio of 45%, 40%, 35% methanol. The Yasuda–Shedlovsky method was chosen to extrapolate aqueous pKa values. The R^2 value was used to evaluate the validity of the assay with a co-solvent, and the results were considered acceptable with a R^2 value ≥ 0.9 (Table S3, supplementary material). The accuracy of the pKa assay was also evaluated using the buffer index profile of the analyte. Specifically, the buffering capacity signal of the analyte must be above the intrinsic buffering capacity of water in order to have an accurate potentiometric measurement. Results were analyzed using Sirius T3 software v1.1.3.
# PD-1/PD-L1 complex = target: T2, PD-1/PD-L1 complex (Homo sapiens, UniProt Q9NZQ7); experiment: Ligand binding displacement assay of PD-1/PD-L1 complex (MST); details: pH 6.2, 50 and 100 μM
# T2 construct: purchased Abcam ab167713 (PD-L1)
# Protocol: This study was carried out with MST.
# Ligand binding displacement assays were carried out with MST. […] The reconstitution of the protein was done by adding sterile deionized water to achieve a final concentration of 1 mg/mL in PBS7.2. […] The protein was tested starting the 1:1 dilution from a 26 μM concentration in MST buffer (PBS6.2) with 2% DMSO. […] After incubating the mixtures for 40 min in the dark, samples were loaded into 16 premium-coated capillary tubes for MST analysis. MST signals were recorded for each capillary at medium laser power and 80% LED power, choosing the Default on Time (DoT) mode with 4/5s hot region.
# as §3, §4
# [4] = design: method as in PMID 25621618; details: UV/vis titration, cited from earlier work
# [5] = pH 7.2, n.3, read-out: Kd ± c.v.
# [6] = pH 6.2, n.3, read-out: Kd ± c.v.
# [7] = oxime nitrogen atom, methanol co-solvent, Yasuda–Shedlovsky extrapolation, read-out: pKa1
# [8] = phenolic group (9, 17–19), secondary amine group (5), read-out: pKa2
# T1 sequence (Q9NZQ7 19-290): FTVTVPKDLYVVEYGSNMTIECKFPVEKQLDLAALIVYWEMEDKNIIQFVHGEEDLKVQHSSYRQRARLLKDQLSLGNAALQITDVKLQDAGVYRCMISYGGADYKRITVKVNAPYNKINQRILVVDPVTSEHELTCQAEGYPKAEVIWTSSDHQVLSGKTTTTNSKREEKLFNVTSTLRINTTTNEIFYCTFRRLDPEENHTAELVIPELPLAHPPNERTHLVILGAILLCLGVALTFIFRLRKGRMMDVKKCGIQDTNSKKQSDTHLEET
# T2 sequence (Q9NZQ7 19-238 limits assumed, one chain of several): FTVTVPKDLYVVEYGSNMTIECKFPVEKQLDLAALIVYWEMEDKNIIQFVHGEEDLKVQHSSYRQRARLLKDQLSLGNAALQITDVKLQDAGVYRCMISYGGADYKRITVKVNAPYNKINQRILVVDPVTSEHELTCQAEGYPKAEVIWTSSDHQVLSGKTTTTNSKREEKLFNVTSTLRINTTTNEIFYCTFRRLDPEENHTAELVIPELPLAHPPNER
Compound,"Kd [1, 5]",Single-point binding result (in words) [2],"Kd [1, 6]",BEI (pH 6.2) [1],"pKa [3, 7]",also measured
Nc1[nH]ncc1-c1ccc(F)cc1F [VIS32926],> 250 µM,at the borderline of the definition criterion,,,,Binder (single-point binder flag) [2]: x/o
N=C(NO)c1ccc(O)cc1 [VIS1201],> 1000 µM,,45.2 ± 10.6 µM,28.6,5.35 ± 0.12,"delta increment of BEI [1]: +8.9; BEI [1]: 19.7; pKa [3, 8]: 8.64 ± 0.01; Inhibition of PD-1/PD-L1 interaction (in words) (PD-1/PD-L1 complex): dose-dependently inhibits the PD-1/PD-L1 interaction; also recorded: dose-dependently inhibit the formation of the PD-1/PD-L1 complex"
Cc1cc(/C(N)=N/O)cc(C)c1O [VIS310],164 µM,hit compounds,47.8 µM,24.0,5.65 ± 0.01,"BEI [1]: 21.0; pKa [3, 8]: 9.32 ± 0.02"
Cc1ccc(Cn2c(S)nc3c2c(=O)n(C)c(=O)n3C)cc1 [VIS826],> 250 µM,,,,,
NCCSc1c[nH]c2ccccc12 [VIS284],> 250 µM,hit compounds,,,,
NC(=NO)c1ccccc1 [benzamidoxime],,,,,,pKa2 ([4]; oxime hydroxyl group): 12.36; pKa1 ([4]; protonated oxime nitrogen): 4.85
O=C(NCc1ccc(F)cc1)c1ccc2nc[nH]c2c1 [VIS545],> 250 µM,at the borderline of the definition criterion,,,,Binder (single-point binder flag) [2]: x/o
C[C@]1(O)CC[C@@H]1N1CC2CCCCC2C1 (some centres unmarked) [VIS1079],,at the borderline of the definition criterion,,,,"Kd ([1]; Kd ± c.v., pH 7.2, n.3): > 250 µM; Binder (single-point binder flag) [2]: x/o"
O=C(O)c1cccc2c1-c1ccccc1OC2 [VIS877],> 250 µM,,,,,
N=C(NO)c1ccccc1-c1ccccc1 [VIS1204],148 ± 71.3 µM,,70.8 ± 12.7 µM,19.6,5.3 ± 0.01,delta increment of BEI [1]: +1.5; BEI [1]: 18.1
NCc1n[nH]c(=O)c2ccccc12 [VIS285],> 250 µM,at the borderline of the definition criterion,,,,Binder (single-point binder flag) [2]: x/o
[H]/N=C1\NC(=O)[C@H](CC(=O)Nc2cccc3ccccc23)S1 [VIS303],> 250 µM,hit compounds,,,,
COC(=O)c1ccc(C)c2c1-c1ccccc1OC2 [VIS879],> 250 µM,,,,,
Cc1cc(C)cc(C(=N)NO)c1 [VIS1200],> 1000 µM,,95.6 ± 20.6 µM,24.5,5.26 ± 0.01,
Cc1cc(O)ccc1C(=N)NO [VIS1203],> 1000 µM,,54.9 ± 8.2 µM,25.7,5.38 ± 0.01,"pKa [3, 8]: 9.17 ± 0.02"
Cc1cc(C(=N)NO)ccc1O [VIS1202],> 1000 µM,,55.4 ± 9.86 µM,25.6,5.38 ± 0.01,"pKa [3, 8]: 8.97 ± 0.03"
